Assay results: US20220280679A1, “Prophylactic Gel Compositions and Use as Barriers to Bacterial and Viral Colonization” (Innovation Chemical and Enviromental Technologies, Inc., priority 2021, published 2022)
Where two headings read alike, the source gives them in different places.

Legend:
Type in all cases: cell-based
porcine vaginal mucosa = assay: Preliminary histology score, porcine tissue (PMM)
Text: (§1) Active compositions are compared against a commercial control (UT20 58-164-4), a non-irritative control (PBS, phosphate buffered saline), a mild irritant control (1% TX-100, Triton X-100 surfactant).
(§2) The histology reflects a combination of the limits of each tissue models in addition to the reaction to variously added agents. SDS is clearly toxic to the tissue models and the addition of TX100 to the porcine vaginal mucosa removed the ability to assess unambiguously the effect of LPS with a surface active agent such as TX100.

porcine nasal tissue = assay: Histology scoring on porcine nasal mucosa
Method: A panel of controls for preliminary model development was assessed for biocompatibility properties on Porcine nasal tissue via MTT, and ELISA Assays.
In Table 16, histology scoring of NS A (166A) and NS B (166B) type compositions on porcine nasal mucosa. Sample 165B is a commercial control. It is of some interest that the treatments appear to result in a reduced response with or without the addition of LPS. The detergents SDS and TX100 produce a maximal response while the LPS produces a range of responses. […] The blinded participation of the Histology expert lends additional strength to the data.

[1] = tested on: human bladder tissue explants; assay: Preliminary histology score, ex-vivo human bladder tissue (HBT)
Text: as §1, §2

tissue explants = assay: MTT biocompatibility assay, relative viability of tissue explants
Method: Biocompatibility assays were performed by PerfectUs Biomed group (formerly Extherid) on the samples of IC-2B2 samples from Example 2, Table 2B.2
MTT assays returns relative viability of tissue through calorimetric analysis. Results are reported as percent viability compared to the non-irritative PBS control, which represents 100% viability for each of the four test conditions.
Because 100% viability for each trial is represented by the colorimetric average of the 3 explants treated with PBS. viability greater than 100% indicates UT20 formulations impart cytoprotective effects compared to the neutral PBS control.

Row | Compound | PMM Qualitative Score (histology) (porcine vaginal mucosa) | Ordinal score (histology) (porcine nasal tissue) | HBT Qualitative Score (histology) [1] | tissue viability (MTT), irritant controls (tissue explants) | histology observation, porcine vaginal mucosa (porcine vaginal mucosa; LPS combined with TX100) | Ordinal score (histology) (porcine nasal tissue; control agent alone) | histology observation, bladder sections [1] | tissue viability (MTT), irritant controls (tissue explants; all test conditions) | histology observation, bladder sections ([1]; with addition of LPS)
1 | CCCCCCCCCCCCOS(=O)(=O)[O-].[Na+] [SDS] | 4+ | 4 | 4+ | decreases in tissue viability | – | – | – | – | –
2 | Triton X-100 [TX100] | – | – | – | – | lost normal structure entirely | 3 | mild cell loss and submucosal edema | decreases in tissue viability | –
3 | lipopolysaccharide [LPS] | – | – | – | – | – | 1 | – | – | reactive damage to the bladder sections with a loss of cells on the surface of the section
